Measurements taken from ChEMBL document CHEMBL3885881, “DrugMatrix”.

Species on record: Rattus norvegicus
Test: DrugMatrix - Regimen: Daily Repeat
Format: toxicity, organism-based, Sprague-Dawley
Parameters: regimen Daily Repeat, gender Male, age 6-8 weeks
Conditions: in vivo, iv, vehicle 100 % SALINE; for ABSOLUTE BASOPHIL / ABSOLUTE EOSINOPHIL / ABSOLUTE LYMPHOCYTE / ABSOLUTE MONOCYTE / ABSOLUTE SEGMENTED NEUTROPHIL / BASOPHIL / EOSINOPHIL / ERYTHROCYTE COUNT / HEMATOCRIT / HEMOGLOBIN / LEUKOCYTE COUNT / LYMPHOCYTE / MEAN CORPUSCULAR HEMOGLOBIN / MEAN CORPUSCULAR HEMOGLOBIN CONCENTRATION / MEAN CORPUSCULAR VOLUME / MONOCYTE / NEUTROPHIL / NUCLEATED RED BLOOD CELLS / PLATELET COUNT: tissue Blood; for ALANINE AMINOTRANSFERASE / ALBUMIN / ALKALINE PHOSPHATASE / ASPARTATE AMINOTRANSFERASE / BLOOD UREA NITROGEN / CARBON DIOXIDE / CHLORIDE / CHOLESTEROL / CREATINE PHOSPHOKINASE / CREATININE / GLUCOSE / LACTATE DEHYDROGENASE / LIPASE / PHOSPHORUS / POTASSIUM / SODIUM / TOTAL BILIRUBIN / TOTAL PROTEIN / URIC ACID: tissue Plasma
[1] = 0 mg/kg, 72 h, dose level Control, time 3 day
[2] = 0 mg/kg, 120 h, dose level Control, time 5 day
[3] = 23 mg/kg, 72 h, dose level Low, time 3 day

Q: Which “ABSOLUTE BASOPHIL” value [1] does the source give for `Nc1ccn([C@@H]2O[C@H](CO)[C@@H](O)[C@@H]2O)c(=O)n1` [CYTARABINE] here?
A: 0 CELLS/uL

Q: And the “ABSOLUTE EOSINOPHIL” value [1]?
A: 0 CELLS/uL

Q: And the “ABSOLUTE LYMPHOCYTE” value [1]?
A: 7855.5 CELLS/uL

Q: And the “ABSOLUTE MONOCYTE” value [1]?
A: 36.17 CELLS/uL

Q: And the “ABSOLUTE SEGMENTED NEUTROPHIL” value [1]?
A: 575 CELLS/uL

Q: What about the BASOPHIL [1] of the same compound?
A: 0%

Q: And the EOSINOPHIL [1]?
A: 0%

Q: And the “ERYTHROCYTE COUNT” value [1]?
A: 5.14 x10E6/uL

Q: And the HEMATOCRIT [1]?
A: 33.22%

Q: What about the HEMOGLOBIN [1] of the same compound?
A: 12.97 G/DL

Q: And the “LEUKOCYTE COUNT” value [1]?
A: 8.47 x10E3/uL

Q: What about the LYMPHOCYTE [1] of the same compound?
A: 93.17%

Q: What about the “MEAN CORPUSCULAR HEMOGLOBIN” value [1] of the same compound?
A: 25.28 pg

Q: What about the “MEAN CORPUSCULAR HEMOGLOBIN CONCENTRATION” value [1] of the same compound?
A: 39.05 G/DL

Q: And the “MEAN CORPUSCULAR VOLUME” value [1]?
A: 64.75 fL

Q: What about the MONOCYTE [1] of the same compound?
A: 0.33%

Q: What about the NEUTROPHIL [1] of the same compound?
A: 6.5%

Q: And the “NUCLEATED RED BLOOD CELLS” value [1]?
A: 0 /100WBC

Q: And the “PLATELET COUNT” value [1]?
A: 1092 x10E3/uL

Q: And the “ALANINE AMINOTRANSFERASE” value [1]?
A: 61.67 u/L

Q: What about the ALBUMIN [1] of the same compound?
A: 4.03 G/DL

Q: What about the “ALKALINE PHOSPHATASE” value [1] of the same compound?
A: 292.33 u/L

Q: What about the “ASPARTATE AMINOTRANSFERASE” value [1] of the same compound?
A: 100.83 u/L

Q: What about the “BLOOD UREA NITROGEN” value [1] of the same compound?
A: 11 mg/dL

Q: And the “CARBON DIOXIDE” value [1]?
A: 34.67 mmol/L

Q: What about the CHLORIDE [1] of the same compound?
A: 100.25 MEQ/L

Q: And the CHOLESTEROL [1]?
A: 71.17 mg/dL

Q: And the “CREATINE PHOSPHOKINASE” value [1]?
A: 554.5 u/L

Q: What about the CREATININE [1] of the same compound?
A: 0.31 mg/dL

Q: What about the GLUCOSE [1] of the same compound?
A: 151 mg/dL

Q: And the “LACTATE DEHYDROGENASE” value [1]?
A: 88.67 u/L

Q: And the LIPASE [1]?
A: 18.83 u/L

Q: And the PHOSPHORUS [1]?
A: 10.42 mg/dL

Q: And the POTASSIUM [1]?
A: 5.7 MEQ/L

Q: And the SODIUM [1]?
A: 144.57 MEQ/L

Q: What about the “TOTAL BILIRUBIN” value [1] of the same compound?
A: 0.17 mg/dL

Q: What about the “TOTAL PROTEIN” value [1] of the same compound?
A: 5.8 G/DL

Q: And the “URIC ACID” value [1]?
A: 0.52 mg/dL

Q: And the “ABSOLUTE BASOPHIL” value [2]?
A: 0 CELLS/uL

Q: And the “ABSOLUTE EOSINOPHIL” value [2]?
A: 53.33 CELLS/uL

Q: And the “ABSOLUTE LYMPHOCYTE” value [2]?
A: 7739.83 CELLS/uL

Q: And the “ABSOLUTE MONOCYTE” value [2]?
A: 74.83 CELLS/uL

Q: What about the “ABSOLUTE SEGMENTED NEUTROPHIL” value [2] of the same compound?
A: 832 CELLS/uL

Q: And the BASOPHIL [2]?
A: 0%

Q: And the EOSINOPHIL [2]?
A: 0.67%

Q: What about the “ERYTHROCYTE COUNT” value [2] of the same compound?
A: 5.55 x10E6/uL

Q: What about the HEMATOCRIT [2] of the same compound?
A: 34.77%

Q: What about the HEMOGLOBIN [2] of the same compound?
A: 13.62 G/DL

Q: And the “LEUKOCYTE COUNT” value [2]?
A: 8.7 x10E3/uL

Q: And the LYMPHOCYTE [2]?
A: 89.17%

Q: And the “MEAN CORPUSCULAR HEMOGLOBIN” value [2]?
A: 24.6 pg

Q: And the “MEAN CORPUSCULAR HEMOGLOBIN CONCENTRATION” value [2]?
A: 39.2 G/DL

Q: And the “MEAN CORPUSCULAR VOLUME” value [2]?
A: 62.78 fL

Q: What about the MONOCYTE [2] of the same compound?
A: 0.67%

Q: What about the NEUTROPHIL [2] of the same compound?
A: 9.5%

Q: And the “NUCLEATED RED BLOOD CELLS” value [2]?
A: 0 /100WBC

Q: And the “PLATELET COUNT” value [2]?
A: 1096 x10E3/uL

Q: And the “ALANINE AMINOTRANSFERASE” value [2]?
A: 50 u/L

Q: And the ALBUMIN [2]?
A: 4.02 G/DL

Q: What about the “ALKALINE PHOSPHATASE” value [2] of the same compound?
A: 271.17 u/L

Q: And the “ASPARTATE AMINOTRANSFERASE” value [2]?
A: 84.17 u/L

Q: And the “BLOOD UREA NITROGEN” value [2]?
A: 13.33 mg/dL

Q: What about the “CARBON DIOXIDE” value [2] of the same compound?
A: 27 mmol/L

Q: What about the CHLORIDE [2] of the same compound?
A: 99 MEQ/L

Q: What about the CHOLESTEROL [2] of the same compound?
A: 68 mg/dL

Q: And the “CREATINE PHOSPHOKINASE” value [2]?
A: 313.67 u/L

Q: What about the CREATININE [2] of the same compound?
A: 0.21 mg/dL

Q: What about the GLUCOSE [2] of the same compound?
A: 163 mg/dL

Q: What about the “LACTATE DEHYDROGENASE” value [2] of the same compound?
A: 75.67 u/L

Q: And the LIPASE [2]?
A: 11.5 u/L

Q: What about the PHOSPHORUS [2] of the same compound?
A: 9.62 mg/dL

Q: What about the POTASSIUM [2] of the same compound?
A: 5.45 MEQ/L

Q: What about the SODIUM [2] of the same compound?
A: 143.1 MEQ/L

Q: And the “TOTAL BILIRUBIN” value [2]?
A: 0.2 mg/dL

Q: And the “TOTAL PROTEIN” value [2]?
A: 6.08 G/DL

Q: What about the “URIC ACID” value [2] of the same compound?
A: 0.68 mg/dL

Q: What about the “ABSOLUTE BASOPHIL” value [3] of the same compound?
A: 0 CELLS/uL

Q: And the “ABSOLUTE EOSINOPHIL” value [3]?
A: 0 CELLS/uL

Q: What about the “ABSOLUTE LYMPHOCYTE” value [3] of the same compound?
A: 6967 CELLS/uL

Q: And the “ABSOLUTE MONOCYTE” value [3]?
A: 31.33 CELLS/uL

Q: And the “ABSOLUTE SEGMENTED NEUTROPHIL” value [3]?
A: 568.33 CELLS/uL

Q: And the BASOPHIL [3]?
A: 0%

Q: And the EOSINOPHIL [3]?
A: 0%

Q: What about the “ERYTHROCYTE COUNT” value [3] of the same compound?
A: 5.13 x10E6/uL

Q: What about the HEMATOCRIT [3] of the same compound?
A: 33.67%

Q: And the HEMOGLOBIN [3]?
A: 13.23 G/DL

Q: What about the “LEUKOCYTE COUNT” value [3] of the same compound?
A: 7.57 x10E3/uL

Q: And the LYMPHOCYTE [3]?
A: 92%

Q: What about the “MEAN CORPUSCULAR HEMOGLOBIN” value [3] of the same compound?
A: 25.8 pg

Q: What about the “MEAN CORPUSCULAR HEMOGLOBIN CONCENTRATION” value [3] of the same compound?
A: 39.3 G/DL

Q: What about the “MEAN CORPUSCULAR VOLUME” value [3] of the same compound?
A: 65.53 fL

Q: What about the MONOCYTE [3] of the same compound?
A: 0.33%

Q: And the NEUTROPHIL [3]?
A: 7.67%

Q: What about the “NUCLEATED RED BLOOD CELLS” value [3] of the same compound?
A: 0 /100WBC

Q: What about the “PLATELET COUNT” value [3] of the same compound?
A: 1145.33 x10E3/uL

Q: And the “ALANINE AMINOTRANSFERASE” value [3]?
A: 52 u/L

Q: And the ALBUMIN [3]?
A: 4.23 G/DL

Q: What about the “ALKALINE PHOSPHATASE” value [3] of the same compound?
A: 313.33 u/L

Q: What about the “ASPARTATE AMINOTRANSFERASE” value [3] of the same compound?
A: 91.67 u/L

Q: And the “BLOOD UREA NITROGEN” value [3]?
A: 11.67 mg/dL

Q: What about the “CARBON DIOXIDE” value [3] of the same compound?
A: 32.33 mmol/L

Q: What about the CHLORIDE [3] of the same compound?
A: 99.5 MEQ/L

Q: And the CHOLESTEROL [3]?
A: 73 mg/dL

Q: And the “CREATINE PHOSPHOKINASE” value [3]?
A: 427 u/L

Q: And the CREATININE [3]?
A: 0.31 mg/dL

Q: What about the GLUCOSE [3] of the same compound?
A: 163 mg/dL

Q: What about the “LACTATE DEHYDROGENASE” value [3] of the same compound?
A: 93 u/L

Q: What about the LIPASE [3] of the same compound?
A: 13.33 u/L

Q: And the PHOSPHORUS [3]?
A: 11.2 mg/dL

Q: And the POTASSIUM [3]?
A: 5.61 MEQ/L

Q: What about the SODIUM [3] of the same compound?
A: 143.75 MEQ/L

Q: And the “TOTAL BILIRUBIN” value [3]?
A: 0.1 mg/dL

Q: And the “TOTAL PROTEIN” value [3]?
A: 6.17 G/DL

Q: What about the “URIC ACID” value [3] of the same compound?
A: 0.83 mg/dL
